Tests used:
[1] = tested on: uncarboxylated osteocalcin relative to total osteocalcin; test: Vitamin K status by ucOC/tOC ratio in renal transplant recipients treated with menaquinone-7 (Experiment 5); assay type: in vivo, renal transplant recipients (human)
Excerpt: In yet a further aspect, vitamin K used according to the present invention is to be administered to specific groups of subjects. As already stated supra, mammalian subjects according to the invention are in particular human subjects. Vitamin K may, in the context of the invention, be administered to healthy or apparently healthy human subjects, preferably healthy or apparently healthy adult human subjects, which may benefit from vitamin K supplementation. In particular, these subjects are characterized in that they have a regular vitamin K status and a normal thrombosis risk, particularly a normal venous thrombosis risk. The vitamin K status may e.g. be determined using the ucOC/tOC ratio, i.e. the amount of circulating uncarboxylated osteocalcin (ucOC) relative to the total amount of osteocalcin (tOC). The vitamin K status may also be determined using other methods, e.g. the carboxylation degree of the vascular Gla-protein MGP, but since this assay is not yet commercially available, the ucOC/tOC ratio will be used throughout this document.
In the present study, a group of 32 RTR were randomly subdivided into 4 groups of 8 subjects each and compared with 24 age- and sex-matched healthy volunteers.
The RTR were treated with the following doses of vitamin K2 (menaquinone-7) for 3 months: 0, 90, 180 and 360 μg/day. Blood was taken at baseline and at the end of the study to prepare EDTA plasma and serum. Vitamin K status was assessed by measuring the ucOC/tOC ratio and the thrombosis tendency was estimated from the ETP values.

[2] = tested on: Endogenous Thrombin Potential (thrombin generation in plasma); test: ETP in renal transplant recipients treated with menaquinone-7 (Experiment 5); assay type: in vivo, renal transplant recipients (human)
Excerpt: (§1) There are several ways in which thrombosis tendency or increased thrombosis risk may be established, but most of them are based on one of the two following principles: • a) Citrated plasma is collected by venipuncture and clotting is induced by adding tissue factor (thromboplastin) and recalcification. The time required to clot is compared to the clotting time of a reference sample and expressed as International Normalized Ratio (INR). This method is sensitive for monitoring patients during anticoagulation treatment (INR>2.0), but insensitive for INR values<1.0 (increased thrombosis risk). • b) Citrated plasma is collected by venipuncture, defibrinated and the conversion of prothrombin into thrombin is initiated by adding tissue factor and calcium. The total amount of thrombin generated in a certain time period is expressed as Endogenous Thrombin Potential (ETP), whereas also other kinetic characteristics (thrombin peak height, time to peak) provide additional information (E. De Smedt, R. Al Dieri, H. M. Spronk, K. Hamulyak, H. ten Cate, H. C. Hemker: Thromb. Haemost. 2008; 100:343-349).
(§2) The ETP reflects the amount of thrombin that can be formed in a period of time following activation of platelet-poor plasma. The amount of thrombin generated is monitored using a chromogenic substrate for thrombin, and results from three independent principles: the circulating concentration of coagulation factors, the concentration of coagulation inhibitors (proteins C and S) and the concentration of thrombin inhibitors such as antithrombin III. Typical ETP curves show a rapid increase of thrombin formed in the first 6-8 minutes after activation, followed by a decline caused by thrombin inhibitors such as antithrombin III. […] Generally, the ETP is expressed as the area under the curve during the first 30 minutes of thrombin formation. […]
The RTR were treated with the following doses of vitamin K2 (menaquinone-7) for 3 months: 0, 90, 180 and 360 μg/day. […] Vitamin K status was assessed by measuring the ucOC/tOC ratio and the thrombosis tendency was estimated from the ETP values.

[3] = tested on: Endogenous Thrombin Potential (thrombin generation in plasma); test: ETP at baseline and after one year of vitamin K1 by tertile of vitamin K status (Experiment 3); assay type: in vivo, postmenopausal women; settings: 1 mg/day, group with the highest ucOC/tOC ratio (0.20, n=19), only in this group
Excerpt: as §1, with “This method is sensitive for monitoring patients during anticoagulation treatment (INR>2.0), but insensitive for INR values<1.0 (increased thrombosis risk). • b) Citrated plasma is collected by venipuncture, defibrinated and the conversion of prothrombin into thrombin is initiated by adding tissue factor and calcium.” left out
as §2, with “III.” for “III. Typical ETP curves show a rapid increase of thrombin formed in the first 6-8 minutes after activation, followed by a decline caused by thrombin inhibitors such as antithrombin III.”

Row | SMILES | change of ucOC/tOC ratio with dose ([1]; 0, 90, 180 and 360 μg/day, 3 months, FIG. 5A) | decline of ucOC/tOC ratio compared to baseline ([1]; 180 and 360 μg/day, 3 months) | difference in ucOC/tOC ratio between the 0 μg/day and the 360 μg/day intake groups ([1]; t=3 months) | change of ETP with dose ([2]; 0, 90, 180 and 360 μg/day, 3 months, FIG. 5B) | decline of ETP compared to baseline ([2]; 180 and 360 μg/day, 3 months) | difference in ETP between the 0 μg/day and the 360 μg/day intake groups ([2]; t=3 months) | change of ETP after vitamin K supplementation [3]
1 | CC(C)=CCC/C(C)=C/CC/C(C)=C/CC/C(C)=C/CC/C(C)=C/CC/C(C)=C/CC/C(C)=C/CC1=C(C)C(=O)c2ccccc2C1=O [menaquinone-7] | decreased in a dose-dependent way | statistically significant | significant | decreased at increasing doses | statistically significant | significant | –
2 | CC1=C(C/C=C(\C)CCC[C@H](C)CCC[C@H](C)CCCC(C)C)C(=O)c2ccccc2C1=O [vitamin K1, phylloquinone] | – | – | – | – | – | – | declined significantly

Source: US20160310445A1, “PREVENTION AND COUNTERACTION OF DIET-INDUCED THROMBOSIS RISK” (VITAK BV, priority 2013, published 2016)
